Biological target: T1, Etr1p (Candida tropicalis, UniProt Q8WZM3)
T1 sequence (Q8WZM3 23-386): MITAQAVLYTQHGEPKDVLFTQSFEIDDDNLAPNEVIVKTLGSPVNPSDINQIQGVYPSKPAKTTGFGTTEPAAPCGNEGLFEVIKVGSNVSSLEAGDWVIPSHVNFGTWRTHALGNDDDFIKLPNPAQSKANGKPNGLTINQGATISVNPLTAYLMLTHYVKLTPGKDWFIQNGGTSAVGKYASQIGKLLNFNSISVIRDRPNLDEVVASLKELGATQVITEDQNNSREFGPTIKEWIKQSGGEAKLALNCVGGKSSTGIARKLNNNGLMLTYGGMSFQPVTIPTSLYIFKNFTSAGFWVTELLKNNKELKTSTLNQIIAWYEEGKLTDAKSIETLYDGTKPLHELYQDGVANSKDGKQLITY
Assay: isothermal titration calorimetry
Type: binding
Details: 150 mM NaCl, 20 mM Tris-HCl pH 7.9; association constant

NC(=O)C1=CN([C@@H]2O[C@H](COP(=O)(O)OP(=O)(O)OC[C@H]3O[C@@H](n4cnc5c(N)ncnc54)[C@H](OP(=O)(O)O)[C@@H]3O)[C@@H](O)[C@H]2O)C=CC1 [NADPH]
binding constant: 3.8 ± 1.0 ·10^5

Source: paper PMC5892710 (Nature chemical biology, 2017)
